Results published in PMC3488320, “Indirubin derivative E804 inhibits angiogenesis” (BMC Cancer, 2012).

Molecular target: T1, VEGFR-2 (Homo sapiens, UniProt P35968)
T1 construct: gene KDR
Test: HTScan VEGFR-2 kinase assay kit (purified kinase, peptide substrate, pTyr-100 ELISA)
Format: biochemical

T1 sequence (P35968 20-1356): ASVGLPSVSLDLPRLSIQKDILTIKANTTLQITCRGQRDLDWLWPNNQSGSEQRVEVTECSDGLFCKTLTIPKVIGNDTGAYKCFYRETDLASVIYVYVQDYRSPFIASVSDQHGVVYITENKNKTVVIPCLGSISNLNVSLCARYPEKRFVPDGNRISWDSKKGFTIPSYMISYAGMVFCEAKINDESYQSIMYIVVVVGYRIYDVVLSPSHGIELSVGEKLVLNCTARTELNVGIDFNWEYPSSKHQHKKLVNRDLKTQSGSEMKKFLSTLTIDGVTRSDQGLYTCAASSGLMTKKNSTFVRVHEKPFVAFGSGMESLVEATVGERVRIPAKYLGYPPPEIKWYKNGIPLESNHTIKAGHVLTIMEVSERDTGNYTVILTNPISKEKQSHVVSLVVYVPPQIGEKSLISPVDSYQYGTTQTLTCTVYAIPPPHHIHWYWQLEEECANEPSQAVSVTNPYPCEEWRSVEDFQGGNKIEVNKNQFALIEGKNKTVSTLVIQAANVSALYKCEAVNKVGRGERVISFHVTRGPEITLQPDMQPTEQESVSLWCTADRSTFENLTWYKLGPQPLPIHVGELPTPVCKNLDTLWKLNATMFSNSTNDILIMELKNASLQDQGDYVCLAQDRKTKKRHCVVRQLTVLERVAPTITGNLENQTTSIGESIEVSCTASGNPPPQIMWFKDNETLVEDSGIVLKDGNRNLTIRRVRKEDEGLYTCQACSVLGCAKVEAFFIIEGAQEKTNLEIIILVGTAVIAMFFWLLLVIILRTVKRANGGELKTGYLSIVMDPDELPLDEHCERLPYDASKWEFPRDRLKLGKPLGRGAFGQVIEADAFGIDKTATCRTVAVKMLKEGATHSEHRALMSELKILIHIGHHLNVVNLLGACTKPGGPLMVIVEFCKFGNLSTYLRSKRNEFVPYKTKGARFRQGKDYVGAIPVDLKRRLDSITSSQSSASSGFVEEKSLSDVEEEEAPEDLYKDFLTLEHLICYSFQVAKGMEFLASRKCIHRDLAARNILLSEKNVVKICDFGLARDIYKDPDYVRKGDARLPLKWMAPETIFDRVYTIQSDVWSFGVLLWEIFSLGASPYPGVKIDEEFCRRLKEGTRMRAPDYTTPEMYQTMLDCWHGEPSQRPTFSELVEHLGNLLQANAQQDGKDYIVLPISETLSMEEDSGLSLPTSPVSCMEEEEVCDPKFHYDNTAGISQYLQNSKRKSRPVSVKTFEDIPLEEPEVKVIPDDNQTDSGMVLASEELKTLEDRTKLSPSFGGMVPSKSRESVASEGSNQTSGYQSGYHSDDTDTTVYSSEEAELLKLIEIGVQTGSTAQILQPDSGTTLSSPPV

O=C1Nc2ccccc2C1=C1Nc2ccccc2C1=NOCC(O)CO (stereo not shown) [IDR-E804]
IC50: 950 nM
